# Test results from publication PMC4632246 (Analytical biochemistry, 2012).
# Key:
# Format in all cases: binding
# [1] = biological target: Hsp90α-NT (human Hsp90α immobilized via the N-terminal) (Homo sapiens, UniProt P07900); test: Frontal chromatography on Hsp90α-NT column; conditions: for Bmax: Hsp90α-NT column, frontal chromatography, number of active binding sites, ±SE
# [2] = biological target: Hsp90α-CT (human Hsp90α immobilized via the C-terminal) (Homo sapiens, UniProt P07900); test: Frontal chromatography on Hsp90α-CT column; conditions: for Bmax: Hsp90α-CT column, frontal chromatography, number of active binding sites, ±SE
# [3] = biological target: Hsp90α-NT (middle domain of Hsp90α) (Homo sapiens, UniProt P07900); test: Competition studies of eNOS and CEP on Hsp90α-NT column; conditions: eNOS added to the mobile phase
Compound,Kd [1] [µM],Bmax [1] [nmol],Kd [2] [µM],Bmax [2] [nmol],retention factors of CEP with an increase in eNOS concentrations [3]
"COc1ccc2cc1Oc1ccc(cc1)C[C@H]1c3c(cc4c(c3Oc3cc5c(cc3OC)CCN(C)[C@@H]5C2)OCO4)CCN1C [Cepharanthine, cepharanthine]",5.3 ± 1.3,19.8 ± 3.1,6.3 ± 1.7,56.9 ± 7.2,decreased
"COc1cc2c3c(c1OC)Oc1ccc(cc1)C[C@@H]1c4c(cc(OC)c(OC)c4Oc4ccc(cc4)C[C@H]3N(C)CC2)CCN1C [Cycleanine, cycleanine]",159 ± 23.2,37.3 ± 2.5,143 ± 36.6,578 ± 110,–
berbamine,–,36.5 ± 3.3,–,89.7 ± 17.1,–
isotetrandrine,–,54.7 ± 6.3,–,250 ± 29.7,–
